{
  "source": "patent US20130072385A1",
  "about": "“METHODS FOR DELAYING BUD BREAK BY APPLYING ABA ANALOGS” (priority 2011, published 2013)",
  "key": {"[1]": {"test_system": "Concord grapevines", "experiment": "Repeated spray of potted Concord grapevines during the bud break period", "type": "in vivo", "settings": "for Average number of broken buds per vine: 1000 ppm in 0.05% Silwet L77, repeated spray", "description": "A study was conducted to determine the effect of spraying Concord grapevines with ABA or ABA analog PBI-429 during bud break. Potted concord grapevines were placed in greenhouse conditions to promote bud break and the vines were repeatedly sprayed with ABA or ABA analog solutions. The vines were sprayed 2, 4, 8, 12 and 14 days after exposure of the vines into bud break promoting temperatures. Bud break was rated 6, 7, 8, 11, 12, 13, 14, 15, 19 and 20 days after vines were placed in warm bud break promoting conditions."}, "[2]": {"test_system": "PF-11 nectarine trees", "experiment": "Fall foliar spray of PF-11 nectarine trees, fruit number per tree the following spring", "type": "in vivo", "settings": "10,000 ppm in 0.1% Brij 98, fall foliar application; June 10", "description": "(§1) A study was conducted to determine the effect of spraying nectarine trees with ABA or ABA analogs in the fall on bud break the following spring. Mature PF-11 nectarine trees were sprayed to drip with surfactant alone or surfactant and ABA or ABA analog on Oct. 19, 2009. Trees were sprayed with approximately 500 ml (20.5 grams ABA analog/acre) applied to each of 6 trees per treatment arranged in a randomized complete block design. The following spring bud break on pre-selected branches was monitored."}, "[3]": {"test_system": "Concord grapevines", "experiment": "Fall soil drench of potted Concord grapevines, bud break the following spring", "type": "in vivo", "settings": "1000 ppm (1000 mg/pot) fall soil drench", "description": "A study was conducted to determine the effect of application of ABA or ABA analog as a soil drench in the fall on bud break of potted Concord grapevines the following spring. Two year old eco-dormant Concord grapevines were obtained from a Concord Nurseries in the spring. Bare-root vines were planted in 14 liter pots filled with Promix BX (available from Premier Horticulture Inc. Quakertown, Pa.) and grown outside for about 5 months (May October) prior to treatment. Plants received irrigation as needed and fertilized weekly (1 g/L all purpose fertilizer 20-20-20, The Scotts Company, Marysville, Ohio). Uniform plants were selected for the study. A total of 1000 mL of water or chemical solution was applied to the soil of each plant.\nAfter chemical treatment, the ten replicate plants per treatment were arranged in a randomized complete block experimental design. The potted vines were surrounded by bark chips the depth of the soil in the pot to insulate the roots and prevent cold damage. The plants became dormant for the winter. In the following spring the vines were pruned to 5 buds per vine before bud break and bud break was monitored over time (Table 4). The buds were rated for bud break periodically on a scale from 1 for no growth to 6 for three or more leaves showing\nPotted Concord grapevines were treated with 1000 mL water, solution containing 1000 mg ABA or solution containing 100 mg PBI-429. The dose of RBI-429 was used at one-tenth of ABA dose based on the preliminary results."}, "[4]": {"test_system": "Concord grape vines", "experiment": "Spring spray of eco-dormant field grown Concord grape vines, bud break", "type": "in vivo, Concord grapevines", "settings": "sprayed 2 times in spring", "description": "A study was conducted to evaluate the effect of spraying eco-dormant Concord grape vines with ABA or ABA analog plus surfactants on bud break. Mature field grown Concord grape vines were sprayed to runoff 2 times in the spring after pruning and before bud swell. Three replicates of 3 vines each were treated with each treatment solution. Treatments were arranged in a randomized complete block design down a single vineyard row, Bud break was monitored by counting the number of broken buds of the distal 5 buds on 4 proximal canes on the middle vine of each 3 vine replicate. Bud break was only very slightly delayed by any of the treatments compared to the water sprayed control (Table 1)."}, "[5]": {"test_system": "Seyval Blanc grapevines", "experiment": "Soil drench of potted grapevines near the time of bud break, Seyval Blanc", "type": "in vivo", "description": "A study was conducted to determine the effect of ABA applied to the soil of potted grapevines near the time of bud break. Eco-dormant bare-root Seyval Blanc and Canadice grapevines were purchased from Concord Nurseries, North Collins, N.Y. Vines were planted in pots of Promix potting mixture and held in a 5° C. dark chamber prior to treatment. Plants were moved from the 5° C. chamber to a greenhouse set to 20° C. night/25° C. day with a 12 hour light and 12 hour dark light cycle to promote bud break. One group of 5 plants was treated with 250 ml of 1000 ppm ABA (250 mg) as a soil drench 2 days after moving the vines to warm conditions. Another group of vines was treated 6 days after warming and another group of 5 plants was treated 10 days after warming. With the Seyval Blanc grapevines one group of 5 plants was treated at all 3 timings 2, 6, and 10 days after warming (750 mg total). Another group of 5 vines was not treated and acted as an untreated control. […]"}, "[6]": {"test_system": "perennial plant", "experiment": "Applicants' field studies over several years on perennial plant bud break", "type": "in vivo", "settings": "even at high levels, at every application time", "source_text": "In order to determine the role ABA had on perennial plant bud break, Applicants conducted field studies for several years. After many experiments."}, "[7]": {"test_system": "PF-11 nectarine trees", "experiment": "Fall foliar spray of PF-11 nectarine trees, bud break the following spring", "type": "in vivo", "settings": "10,000 ppm in 0.1% Brij 98, fall foliar application; April 8", "description": "as §1"}},
  "data": [
    {"substance": "(S)-5-(1-hydroxy-2,6,6)-trimethyl-4-oxo-2-cyclohexen-1-yl)-3-methyl-(2 Z,4E)-pentadienoic acid [ABA]", "values": [
      {"measurement": "Average number of broken buds per vine", "setting": "[1]; 6 days after warming", "result": 0.2},
      {"measurement": "Average number of broken buds per vine", "setting": "[1]; 7 days after warming", "result": 0.2},
      {"measurement": "Average number of broken buds per vine", "setting": "[1]; 8 days after warming", "result": 0.8},
      {"measurement": "Average number of broken buds per vine", "setting": "[1]; 11 days after warming", "result": 2.8},
      {"measurement": "Average number of broken buds per vine", "setting": "[1]; 12 days after warming", "result": 3.2},
      {"measurement": "Average number of broken buds per vine", "setting": "[1]; 13 days after warming", "result": 3.8},
      {"measurement": "Average number of broken buds per vine", "setting": "[1]; 14 days after warming", "result": 4.8},
      {"measurement": "Average number of broken buds per vine", "setting": "[1]; 15 days after warming", "result": 5.3},
      {"measurement": "Average number of broken buds per vine", "setting": "[1]; 19 days after warming", "result": 7.0},
      {"measurement": "Average number of broken buds per vine", "setting": "[1]; 20 days after warming", "result": 7.0},
      {"measurement": "Effect on average number of broken buds over time", "setting": "[1]; repeated spray application during the bud break period", "result": "not significantly impacted"},
      {"measurement": "Average number of fruit per tree", "setting": "[2]", "result": 55},
      {"measurement": "Average rating of bud break (1-6 scale)", "setting": "[3]; Apr. 23, 2008", "result": 1.0},
      {"measurement": "Average rating of bud break (1-6 scale)", "setting": "[3]; April 28", "result": 1.6},
      {"measurement": "Average rating of bud break (1-6 scale)", "setting": "[3]; April 30", "result": 1.8},
      {"measurement": "Average rating of bud break (1-6 scale)", "setting": "[3]; May 2", "result": 1.8},
      {"measurement": "Average rating of bud break (1-6 scale)", "setting": "[3]; May 5", "result": 2.1},
      {"measurement": "Average rating of bud break (1-6 scale)", "setting": "[3]; May 7", "result": 2.6},
      {"measurement": "Average rating of bud break (1-6 scale)", "setting": "[3]; May 9", "result": 2.9},
      {"measurement": "Average rating of bud break (1-6 scale)", "setting": "[3]; May 12", "result": 3.0},
      {"measurement": "Average rating of bud break (1-6 scale)", "setting": "[3]; May 14", "result": 3.0},
      {"measurement": "Average rating of bud break (1-6 scale)", "setting": "[3]; May 16", "result": 3.4},
      {"measurement": "Average rating of bud break (1-6 scale)", "setting": "[3]; May 19", "result": 4.2},
      {"measurement": "Average rating of bud break (1-6 scale)", "setting": "[3]; May 21", "result": 4.6},
      {"measurement": "Average rating of bud break (1-6 scale)", "setting": "[3]; May 23", "result": 4.9},
      {"measurement": "Average rating of bud break (1-6 scale)", "setting": "[3]; May 28", "result": 5.4},
      {"measurement": "Average percent broken buds", "setting": "[4]; April 24, 1,000 ppm ABA plus 0.5% Brij 98", "result": 8, "unit": "%"},
      {"measurement": "Average percent broken buds", "setting": "[4]; April 24, 1,000 ppm plus 0.5% Pentrabark", "result": 2, "unit": "%"},
      {"measurement": "Average percent broken buds", "setting": "[4]; April 24, 10,000 ppm ABA plus 0.5% Brij 98", "result": 5, "unit": "%"},
      {"measurement": "Average percent broken buds", "setting": "[4]; April 30, 1,000 ppm ABA plus 0.5% Brij 98", "result": 13, "unit": "%"},
      {"measurement": "Average percent broken buds", "setting": "[4]; April 30, 1,000 ppm plus 0.5% Pentrabark", "result": 13, "unit": "%"},
      {"measurement": "Average percent broken buds", "setting": "[4]; April 30, 10,000 ppm ABA plus 0.5% Brij 98", "result": 18, "unit": "%"},
      {"measurement": "Average number of broken buds per vine", "setting": "[5]; 1000 ppm soil drench 2, 6 and 10 days after warming, evaluated 13 days after warming", "result": 1.2},
      {"measurement": "Average number of broken buds per vine", "setting": "[5]; 1000 ppm soil drench 2, 6 and 10 days after warming, evaluated 14 days after warming", "result": 4.4},
      {"measurement": "Average number of broken buds per vine", "setting": "[5]; 1000 ppm soil drench 2, 6 and 10 days after warming, evaluated 15 days after warming", "result": 4.8},
      {"measurement": "Average number of broken buds per vine", "setting": "[5]; 1000 ppm soil drench 2, 6 and 10 days after warming, evaluated 16 days after warming", "result": 7.0},
      {"measurement": "Delay of bud break", "setting": "[5]; 1000 ppm soil drench 13-16 days before bud break, cultivar not stated (Seyval Blanc and Canadice study)", "result": 3.5, "unit": "days"},
      {"measurement": "Average number of broken buds per vine", "setting": "[5]; 1000 ppm soil drench 2 days after warming, evaluated 13 days after warming", "result": 0.4},
      {"measurement": "Average number of broken buds per vine", "setting": "[5]; 1000 ppm soil drench 2 days after warming, evaluated 14 days after warming", "result": 2.2},
      {"measurement": "Average number of broken buds per vine", "setting": "[5]; 1000 ppm soil drench 2 days after warming, evaluated 15 days after warming", "result": 3.6},
      {"measurement": "Average number of broken buds per vine", "setting": "[5]; 1000 ppm soil drench 2 days after warming, evaluated 16 days after warming", "result": 6.8},
      {"measurement": "Average number of broken buds per vine", "setting": "[5]; 1000 ppm soil drench 6 days after warming, evaluated 13 days after warming", "result": 0.2},
      {"measurement": "Average number of broken buds per vine", "setting": "[5]; 1000 ppm soil drench 6 days after warming, evaluated 14 days after warming", "result": 1.6},
      {"measurement": "Average number of broken buds per vine", "setting": "[5]; 1000 ppm soil drench 6 days after warming, evaluated 15 days after warming", "result": 2.6},
      {"measurement": "Average number of broken buds per vine", "setting": "[5]; 1000 ppm soil drench 6 days after warming, evaluated 16 days after warming", "result": 6.8},
      {"measurement": "Average number of broken buds per vine", "setting": "[5]; 1000 ppm soil drench 10 days after warming, evaluated 13 days after warming", "result": 1.8},
      {"measurement": "Average number of broken buds per vine", "setting": "[5]; 1000 ppm soil drench 10 days after warming, evaluated 14 days after warming", "result": 6.0},
      {"measurement": "Average number of broken buds per vine", "setting": "[5]; 1000 ppm soil drench 10 days after warming, evaluated 15 days after warming", "result": 8.6},
      {"measurement": "Average number of broken buds per vine", "setting": "[5]; 1000 ppm soil drench 10 days after warming, evaluated 16 days after warming", "result": 11.4},
      {"measurement": "Effect on bud break", "setting": "[6]", "result": "no appreciable effect on bud break"},
      {"measurement": "Percentage of broken floral buds", "setting": "[7]", "result": 78, "unit": "Percentage"}
    ]}
  ]
}
